How the values were obtained:
Format in all cases: in vivo
[1] = test system: Italian ryegrass (Lolium multiflorum); test: Test A preemergence, visual injury rating
How it was run: (§1)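 Scoring: eye-based comparison with untreated controls, 0 for no effect through 100 for complete control, at about day 10. Treatments: directed soil spray preemergence; foliar spray postemergence on 2–10 cm plants at the one- to two-leaf stage. Medium: loam soil with sand.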

[2] = test system: barnyardgrass (Echinochloa crus-galli); test: Test A preemergence, visual injury rating
How it was run: as §1

[3] = test system: giant foxtail (Setaria faberii); test: Test A preemergence, visual injury rating
How it was run: as §1

[4] = test system: kochia (Kochia scoparia); test: Test A preemergence, visual injury rating
How it was run: as §1

[5] = test system: pigweed (Amaranthus retroflexus); test: Test A preemergence, visual injury rating
How it was run: as §1

[6] = test system: ragweed (common ragweed, Ambrosia elatior); test: Test A preemergence, visual injury rating
How it was run: as §1

[7] = test system: barnyardgrass (Echinochloa crus-galli); test: Test B flooded paddy test, plant response rating; details: 250 g ai/ha; Flood; scale of 0 to 100 where 0 is no effect and 100 is complete control; 13 to 15 days
How it was run: (§2)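 In-water treatment: compound dosed into 3 cm flood over soil, water level unchanged throughout. Controls run alongside; visual assessment at day 13–15.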

[8] = test system: ducksalad (Heteranthera limosa); test: Test B flooded paddy test, plant response rating; details: 250 g ai/ha; Flood; scale of 0 to 100 where 0 is no effect and 100 is complete control; 13 to 15 days
How it was run: as §2

[9] = test system: rice (Oryza sativa); test: Test B flooded paddy test, plant response rating; details: 250 g ai/ha; Flood; scale of 0 to 100 where 0 is no effect and 100 is complete control; 13 to 15 days
How it was run: as §2

[10] = test system: sedge, umbrella (small-flower umbrella sedge, Cyperus difformis); test: Test B flooded paddy test, plant response rating; details: 250 g ai/ha; Flood; scale of 0 to 100 where 0 is no effect and 100 is complete control; 13 to 15 days
How it was run: as §2

[11] = test system: blackgrass (Alopecurus myosuroides); test: Test C preemergence, plant response rating; details: Preemergence
How it was run: (§3)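 Pre-emergence: seeds sown in loam soil–sand blend or silt loam and sprayed with test chemicals in a non-phytotoxic solvent mixture with surfactant. Post-emergence: plants 2 to 18 cm (1- to 4-leaf stage) in peat-based potting medium, same formulation. Greenhouse 13 to 15 d; visual rating 0 (no effect) to 100 (complete control) versus controls.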

[12] = test system: corn (Zea mays); test: Test C preemergence, plant response rating; details: Preemergence
How it was run: as §3

[13] = test system: crabgrass, large (large crabgrass, Digitaria sanguinalis); test: Test C preemergence, plant response rating; details: Preemergence
How it was run: as §3

[14] = test system: foxtail, giant (giant foxtail, Setaria faberii); test: Test C preemergence, plant response rating; details: Preemergence
How it was run: as §3

[15] = test system: oilseed rape (Brassica napus); test: Test C preemergence, plant response rating; details: Preemergence
How it was run: as §3

[16] = test system: ragweed (common ragweed, Ambrosia elatior); test: Test C preemergence, plant response rating; details: Preemergence
How it was run: as §3

[17] = test system: ryegrass, Italian (Italian ryegrass, Lolium multiflorum); test: Test C preemergence, plant response rating; details: Preemergence
How it was run: as §3

[18] = test system: soybean (Glycine max); test: Test C preemergence, plant response rating; details: Preemergence
How it was run: as §3

[19] = 125 g ai/ha, 0 to 100 scale (0 no effect, 100 complete control)
[20] = 500 g ai/ha, 0 to 100 scale (0 no effect, 100 complete control)
[21] = 31 g ai/ha, 0 to 100 scale, 0 no effect, 100 complete control

CCCCC(=O)c1c(Oc2ncc(Cl)cn2)cccc1C(F)(F)F [Compound 130]
Plant response rating, Ryegrass, Italian [1, 19]: 80
Ryegrass, Italian plant response rating [1, 20]: 100
Plant response rating, Barnyardgrass [2, 19]: 100
Barnyardgrass plant response rating [2, 20]: 100
Plant response rating, Foxtail, Giant [3, 19]: 100
Foxtail, Giant plant response rating [3, 20]: 100
Plant response rating, Kochia [4, 19]: 100
Kochia plant response rating [4, 20]: 100
Plant response rating, Pigweed [5, 19]: 100
Pigweed plant response rating [5, 20]: 100
Plant response rating, Ragweed [6, 19]: 20
Ragweed plant response rating [6, 20]: 90
Plant response rating, Barnyardgrass [7]: 55
Plant response rating, Ducksalad [8]: 40
Plant response rating, Rice [9]: 35
Plant response rating, Sedge, Umbrella [10]: 98
Plant response rating, Blackgrass ([11]; 125 g ai/ha, scale of 0 to 100): 85
Plant response rating, Blackgrass ([11]; 16 g ai/ha, scale 0 to 100): 30
Plant response rating, Blackgrass ([11]; 31 g ai/ha, scale 0 to 100): 30
Plant response rating, Blackgrass ([11]; 62 g ai/ha, scale 0 to 100): 60
Plant response rating, Corn ([12]; 125 g ai/ha, scale of 0 to 100): 25
Plant response rating, Corn ([12]; 16 g ai/ha, scale 0 to 100): 5
Plant response rating, Corn ([12]; 31 g ai/ha, scale 0 to 100): 0
Plant response rating, Corn ([12]; 62 g ai/ha, scale 0 to 100): 5
Plant response rating, Crabgrass, Large ([13]; 125 g ai/ha, scale of 0 to 100): 100
Plant response rating, Crabgrass, Large ([13]; 16 g ai/ha, scale 0 to 100): 98
Plant response rating, Crabgrass, Large ([13]; 31 g ai/ha, scale 0 to 100): 100
Plant response rating, Crabgrass, Large ([13]; 62 g ai/ha, scale 0 to 100): 100
Plant response rating, Foxtail, Giant ([14]; 125 g ai/ha, scale of 0 to 100): 100
Plant response rating, Foxtail, Giant ([14]; 31 g ai/ha, scale 0 to 100): 70
Plant response rating, Foxtail, Giant ([14]; 62 g ai/ha, scale 0 to 100): 98
Plant response rating, Oilseed Rape ([15]; 125 g ai/ha, scale of 0 to 100): 95
Plant response rating, Oilseed Rape ([15]; 31 g ai/ha, scale 0 to 100): 10
Plant response rating, Oilseed Rape ([15]; 62 g ai/ha, scale 0 to 100): 40
Plant response rating, Ragweed ([16]; 125 g ai/ha, scale of 0 to 100): 10
Plant response rating, Ragweed ([16]; 31 g ai/ha, scale 0 to 100): 0
Plant response rating, Ragweed ([16]; 62 g ai/ha, scale 0 to 100): 5
Plant response rating, Ryegrass, Italian ([17]; 125 g ai/ha, scale of 0 to 100): 70
Plant response rating, Ryegrass, Italian ([17]; 31 g ai/ha, scale 0 to 100): 35
Plant response rating, Ryegrass, Italian ([17]; 62 g ai/ha, scale 0 to 100): 60
Plant response rating, Soybean ([18]; 125 g ai/ha, scale of 0 to 100): 30
Plant response rating, Soybean ([18]; 31 g ai/ha, scale 0 to 100): 0
Plant response rating, Soybean ([18]; 62 g ai/ha, scale 0 to 100): 10

O=C(CCCCC(F)(F)F)c1c(Br)cccc1Oc1ncc(Cl)cn1 [Compound 82]
Plant response rating, Ryegrass, Italian [1, 21]: 0
Ryegrass, Italian plant response rating [1, 19]: 80
Plant response rating, Barnyardgrass [2, 21]: 50
Barnyardgrass plant response rating [2, 19]: 100
Plant response rating, Foxtail, Giant [3, 21]: 90
Foxtail, Giant plant response rating [3, 19]: 100
Plant response rating, Kochia [4, 21]: 70
Kochia plant response rating [4, 19]: 80
Plant response rating, Pigweed [5, 21]: 90
Pigweed plant response rating [5, 19]: 100
Plant response rating, Ragweed [6, 21]: 0
Ragweed plant response rating [6, 19]: 60
Plant response rating, Barnyardgrass [7]: 35
Plant response rating, Ducksalad [8]: 100
Plant response rating, Rice [9]: 30
Plant response rating, Sedge, Umbrella [10]: 95
Plant response rating, Blackgrass ([11]; 125 g ai/ha, scale of 0 to 100): 5
Plant response rating, Blackgrass ([11]; 16 g ai/ha, scale 0 to 100): 0
Plant response rating, Blackgrass ([11]; 31 g ai/ha, scale 0 to 100): 0
Plant response rating, Blackgrass ([11]; 62 g ai/ha, scale 0 to 100): 5
Plant response rating, Corn ([12]; 125 g ai/ha, scale of 0 to 100): 5
Plant response rating, Corn ([12]; 16 g ai/ha, scale 0 to 100): 0
Plant response rating, Corn ([12]; 31 g ai/ha, scale 0 to 100): 0
Plant response rating, Corn ([12]; 62 g ai/ha, scale 0 to 100): 0
Plant response rating, Crabgrass, Large ([13]; 125 g ai/ha, scale of 0 to 100): 98
Plant response rating, Crabgrass, Large ([13]; 16 g ai/ha, scale 0 to 100): 60
Plant response rating, Crabgrass, Large ([13]; 31 g ai/ha, scale 0 to 100): 70
Plant response rating, Crabgrass, Large ([13]; 62 g ai/ha, scale 0 to 100): 90
Plant response rating, Foxtail, Giant ([14]; 125 g ai/ha, scale of 0 to 100): 98
Plant response rating, Foxtail, Giant ([14]; 31 g ai/ha, scale 0 to 100): 80
Plant response rating, Foxtail, Giant ([14]; 62 g ai/ha, scale 0 to 100): 90
Plant response rating, Oilseed Rape ([15]; 125 g ai/ha, scale of 0 to 100): 50
Plant response rating, Oilseed Rape ([15]; 31 g ai/ha, scale 0 to 100): 0
Plant response rating, Oilseed Rape ([15]; 62 g ai/ha, scale 0 to 100): 5
Plant response rating, Ragweed ([16]; 125 g ai/ha, scale of 0 to 100): 30
Plant response rating, Ragweed ([16]; 31 g ai/ha, scale 0 to 100): 0
Plant response rating, Ragweed ([16]; 62 g ai/ha, scale 0 to 100): 20
Plant response rating, Ryegrass, Italian ([17]; 125 g ai/ha, scale of 0 to 100): 5
Plant response rating, Ryegrass, Italian ([17]; 31 g ai/ha, scale 0 to 100): 0
Plant response rating, Ryegrass, Italian ([17]; 62 g ai/ha, scale 0 to 100): 5
Plant response rating, Soybean ([18]; 125 g ai/ha, scale of 0 to 100): 0
Plant response rating, Soybean ([18]; 31 g ai/ha, scale 0 to 100): 0
Plant response rating, Soybean ([18]; 62 g ai/ha, scale 0 to 100): 0
